Test results: ChEMBL document CHEMBL1154357, “Total synthesis of (-)-uniflorine A” (J Nat Prod, 2009)

Molecular target: Sucrase-isomaltase, intestinal (Rattus norvegicus, UniProt P23739)
Experiment: Inhibition of rat intestinal sucrase

Sucrase-isomaltase, intestinal, sequence (P23739 1-1013 limits assumed): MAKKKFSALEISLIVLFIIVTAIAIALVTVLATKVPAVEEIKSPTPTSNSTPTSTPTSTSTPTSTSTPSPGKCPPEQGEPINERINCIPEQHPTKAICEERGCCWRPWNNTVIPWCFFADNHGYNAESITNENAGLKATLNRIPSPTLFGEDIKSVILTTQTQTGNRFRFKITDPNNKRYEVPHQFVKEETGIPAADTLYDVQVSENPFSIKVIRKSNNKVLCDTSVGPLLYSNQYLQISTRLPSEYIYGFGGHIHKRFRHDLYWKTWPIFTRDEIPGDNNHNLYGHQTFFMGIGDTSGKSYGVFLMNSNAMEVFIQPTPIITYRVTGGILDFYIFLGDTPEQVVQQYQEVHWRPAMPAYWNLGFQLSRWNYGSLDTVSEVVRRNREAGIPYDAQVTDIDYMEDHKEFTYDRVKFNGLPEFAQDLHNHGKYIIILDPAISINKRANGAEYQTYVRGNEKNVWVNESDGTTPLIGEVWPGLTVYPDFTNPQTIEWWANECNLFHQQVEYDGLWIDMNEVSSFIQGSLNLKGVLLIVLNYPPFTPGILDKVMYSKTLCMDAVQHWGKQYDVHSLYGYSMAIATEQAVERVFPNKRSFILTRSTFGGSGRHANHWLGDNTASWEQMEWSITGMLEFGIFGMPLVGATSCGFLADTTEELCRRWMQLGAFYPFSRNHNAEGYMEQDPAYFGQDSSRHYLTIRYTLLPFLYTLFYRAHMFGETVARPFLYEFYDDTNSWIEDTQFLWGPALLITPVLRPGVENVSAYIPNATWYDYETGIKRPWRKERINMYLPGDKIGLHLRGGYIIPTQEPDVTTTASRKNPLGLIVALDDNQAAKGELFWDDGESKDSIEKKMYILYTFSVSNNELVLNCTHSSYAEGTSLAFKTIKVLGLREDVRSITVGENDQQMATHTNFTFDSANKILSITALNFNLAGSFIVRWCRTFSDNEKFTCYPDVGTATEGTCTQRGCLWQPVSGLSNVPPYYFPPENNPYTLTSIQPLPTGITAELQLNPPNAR
Sucrase-isomaltase, intestinal, sequence (P23739 1014-1841 limits assumed): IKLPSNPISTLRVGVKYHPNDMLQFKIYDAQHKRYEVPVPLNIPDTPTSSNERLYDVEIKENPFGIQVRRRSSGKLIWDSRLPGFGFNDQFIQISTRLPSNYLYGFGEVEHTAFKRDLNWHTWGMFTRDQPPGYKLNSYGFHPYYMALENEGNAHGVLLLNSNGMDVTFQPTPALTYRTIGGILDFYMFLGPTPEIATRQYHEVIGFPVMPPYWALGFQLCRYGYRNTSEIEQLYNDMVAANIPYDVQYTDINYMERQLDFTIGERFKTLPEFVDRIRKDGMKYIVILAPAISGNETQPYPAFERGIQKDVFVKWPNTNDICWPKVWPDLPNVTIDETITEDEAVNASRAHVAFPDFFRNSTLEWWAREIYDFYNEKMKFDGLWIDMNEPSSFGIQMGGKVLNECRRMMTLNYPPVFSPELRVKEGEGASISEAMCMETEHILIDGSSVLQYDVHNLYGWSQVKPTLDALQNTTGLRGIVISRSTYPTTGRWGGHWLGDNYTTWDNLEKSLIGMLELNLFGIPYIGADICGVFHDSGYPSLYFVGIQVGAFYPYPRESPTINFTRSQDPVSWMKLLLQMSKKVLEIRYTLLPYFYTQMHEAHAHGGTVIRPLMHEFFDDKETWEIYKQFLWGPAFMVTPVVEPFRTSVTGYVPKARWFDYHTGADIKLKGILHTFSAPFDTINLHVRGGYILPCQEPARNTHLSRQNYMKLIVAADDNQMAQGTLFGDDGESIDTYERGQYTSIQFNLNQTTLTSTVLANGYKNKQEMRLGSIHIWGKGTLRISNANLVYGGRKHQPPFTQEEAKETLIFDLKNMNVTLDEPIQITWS

Work on `O[C@H]1[C@H](O)[C@@H](O)CN2C[C@@H](O)[C@@H](O)[C@H]12` yielded an IC50 of 3.1 µM.
`O[C@H]1[C@H]2[C@H](O)[C@H](O)CN2[C@H](O)C[C@H]1O` [UNIFLORINE B] was tested, and the IC50 was 1.8 µM.
